Reference: US20220389026A1, “TETRACYCLIC COMPOUND USED AS CDC7 INHIBITOR” (Chia Tai Tianqing Pharmaceutical Group Co., Ltd., priority 2019, published 2022)
Where two headings read alike, the source gives them in different places.

Experiments:
CDC7/DBF4 [1] = molecular target: T1, CDC7/DBF4 (Homo sapiens, UniProt O00311); assay: Inhibitory effect against activity of Cdc7/DBF4 kinase (ADP-Glo kit); assay type: biochemical; parameters: purchased Promega; conditions: 10 μM ATP, 25° C., 60 min
Method: Experimental Example 1. Detection of Inhibitory Effect of Compounds Against Activity of Cdc7/DBF4 Kinase
Cdc7/DBF4 kinase detection kit purchased from Promega; and
(§1) Nivo multi-marker analyzer (PerkinElmer).
An enzyme, a substrate, adenosine triphosphate and an inhibitor were diluted with the kinase buffer in the kit.
A test compound was serially 5-fold diluted to an 8th concentration, i.e., from 10 μM to 0.13 nM, with the DMSO concentration being 5%, and the duplicate well experiment was set up. To a microplate were added 1 μL of inhibitors of various concentration gradients, 2 μL of CDC7/DBF4 kinase (6.25 ng), 2 μL of a mixture of substrate and ATP (10 μM adenosine triphosphate, 0.2 μg/μL substrate), and the final concentration gradient of the compound was diluted from 2 μM to 0.025 nM. The reaction system was left reacting at 25° C. for 60 min. After the reaction was completed, 5 μL of ADP-Glo reagent was added to each well, and the reaction was continued at 25° C. for 40 min. After the reaction was completed, 10 μL of the kinase detection reagent was added to each well. After 30 min of reaction at 25° C., the chemiluminescence was read using a multi-marker analyzer, with an integration time of 0.5 s.
The original data were converted to inhibition rate using the equation (Sample−Min)/(Max−Min)×100%, and the IC50 value was then curve fitted using four parameters (obtained from the “log(inhibitor) vs. response-Variableslope” model in GraphPadPrism). Table 1 provides the inhibitory activity of the compounds disclosed herein against Cdc7/DBF4 kinase.

COLO205 cells = assay: Inhibitory activity against COLO205 cell proliferation (CellTiter-Glo); assay type: cell-based; conditions: Homo sapiens, COLO 205, 72 h; 3 days incubation
Method: Experimental Example 2. Detection of Inhibitory Effect of Compounds Against Activity of Colo205 Cells
1640 medium; fetal bovine serum; penicillin/streptomycin antibiotics purchased from Wisent;
CellTiter-Glo (chemiluminescence detection reagent for cell viability) reagent purchased from Promega;
COLO205 cell line purchased from Wuhan Procell Life Science&Technology Co., Ltd; and
as §1
COLO205 cells were plated on to white 96-well plates by adding 80 μL of cell suspension (containing 3000 COLO205 cells) to each well. The cell plate was incubated in a CO2 incubator overnight.
A test compound was serially 3-fold diluted to an 8th concentration, i.e., from 2 mM to 920 nM, and the duplicate well experiment was set up. […] Another cell plate was read for signal values on the day of compound addition, and these values were used as the […] in data analysis. The chemiluminescence detection reagent for cell viability was added to this cell plate at 25 μL per well and the luminescence signals were stabilized by incubation at room temperature for 10 min. Readings were taken using a multi-marker analyzer.
The chemiluminescence detection reagent for cell viability was added to the cell plate at 25 μL per well and the luminescence signals were stabilized by incubation at room temperature for 10 min. […]

tumors in 25 PDX models = conditions: cited from earlier work
[2] = test system: colo205 cell line with high expression of Cdc7; conditions: read-out: COL0205 IC50; cited from earlier work
CDC7/DBF4 [3] = molecular target: T1, CDC7/DBF4; conditions: cited from earlier work
[4] = cited from earlier work

T1 sequence (O00311 whole entry): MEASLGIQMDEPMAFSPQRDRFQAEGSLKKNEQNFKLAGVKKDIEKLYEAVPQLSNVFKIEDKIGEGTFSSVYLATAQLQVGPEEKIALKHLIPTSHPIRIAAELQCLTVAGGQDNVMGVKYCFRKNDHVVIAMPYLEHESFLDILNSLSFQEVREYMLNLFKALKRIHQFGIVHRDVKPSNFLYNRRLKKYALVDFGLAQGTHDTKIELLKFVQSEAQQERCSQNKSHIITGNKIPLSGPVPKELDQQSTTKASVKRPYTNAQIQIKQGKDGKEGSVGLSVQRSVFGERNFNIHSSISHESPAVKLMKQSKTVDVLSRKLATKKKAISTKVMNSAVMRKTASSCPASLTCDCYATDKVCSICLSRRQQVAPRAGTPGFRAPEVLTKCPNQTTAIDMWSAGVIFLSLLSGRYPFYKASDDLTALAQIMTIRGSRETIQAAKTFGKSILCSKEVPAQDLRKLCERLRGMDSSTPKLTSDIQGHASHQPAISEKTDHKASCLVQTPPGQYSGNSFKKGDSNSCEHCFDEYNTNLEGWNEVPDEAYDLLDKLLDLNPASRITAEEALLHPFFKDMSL
T1 sequence (Q9UBU7 whole entry partner): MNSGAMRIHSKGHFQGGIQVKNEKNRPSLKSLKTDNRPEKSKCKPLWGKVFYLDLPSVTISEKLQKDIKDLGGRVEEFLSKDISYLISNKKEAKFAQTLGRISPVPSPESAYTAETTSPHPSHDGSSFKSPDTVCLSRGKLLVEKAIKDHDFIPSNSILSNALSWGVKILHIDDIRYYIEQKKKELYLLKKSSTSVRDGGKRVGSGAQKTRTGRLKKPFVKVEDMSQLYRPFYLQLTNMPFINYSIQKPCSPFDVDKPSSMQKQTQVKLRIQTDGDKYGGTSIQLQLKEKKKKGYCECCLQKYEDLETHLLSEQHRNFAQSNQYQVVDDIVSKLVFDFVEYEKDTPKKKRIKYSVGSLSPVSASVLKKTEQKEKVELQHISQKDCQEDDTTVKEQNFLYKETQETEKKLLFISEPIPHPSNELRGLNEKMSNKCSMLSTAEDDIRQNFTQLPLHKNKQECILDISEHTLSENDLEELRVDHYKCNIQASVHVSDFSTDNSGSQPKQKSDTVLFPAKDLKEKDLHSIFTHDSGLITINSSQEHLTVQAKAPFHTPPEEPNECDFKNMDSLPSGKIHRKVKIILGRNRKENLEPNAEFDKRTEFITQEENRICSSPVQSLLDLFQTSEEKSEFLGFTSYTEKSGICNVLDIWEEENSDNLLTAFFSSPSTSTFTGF

IC50 (CDC7/DBF4 [1])	SMILES	other results
0.6 nM	CN1CCC[C@H]1c1nc2c3c(oc2c(=O)[nH]1)-c1c[nH]nc1CCC3 [Compound 3-1]	–
1.97 nM	CN1CCC[C@@H]1c1nc2c3c(oc2c(=O)[nH]1)-c1c[nH]nc1CCC3 [Compound 3-2]	–

Continued, compound first:

SMILES	IC50 (CDC7/DBF4 [1])	other results
O=c1[nH]c(C2CC3CCN2CC3)nc2c3c(oc12)-c1c[nH]nc1CCC3 (single isomer, unassigned) [Compound 1-1]	1.49 nM	–
O=c1[nH]c(C2CC3CCN2CC3)nc2c3c(oc12)-c1c[nH]nc1CCC3 (single isomer, unassigned) [Compound 1-2]	2.8 nM	IC50 (COLO205 cells): 51.7 nM
O=c1[nH]c([C@@H]2CCCN2)nc2c3c(oc12)-c1c[nH]nc1CCC3 [Compound 2-1]	0.95 nM	–
O=c1[nH]c([C@H]2CCCN2)nc2c3c(oc12)-c1c[nH]nc1CCC3 [Compound 2-2]	1.41 nM	–
Cc1[nH]ncc1-c1cc2nc([C@@H]3CC4CCN3CC4)[nH]c(=O)c2s1 [TAK-931]	–	inhibitory activity against tumors in PDX models (tumors in 25 PDX models): excellent inhibitory activity; IC50 [2]: 85.5 nM; IC50 (CDC7/DBF4 [3]): 2.59 nM; clearance rate in vivo [4]: high clearance rate; half-life in vivo [4]: short half-life
